Assay results from ChEMBL document CHEMBL4184275 (Bioorg Med Chem Lett, 2018).
Bridge positions count the residues as written; N and C are the ends. Peptide text beside a SMILES is read from it.

Legend:
HL-60 = test: cells; details: Homo sapiens
Description: Antiproliferative activity against human HL60 cells

MCF7 = test: Antiproliferative activity against human MCF7 cells; type: functional, cell-based
[1] = target: T1, Prolyl oligopeptidase family protein (Flavobacterium psychrophilum (strain JIP02/86 / ATCC 49511), UniProt A6H249); test: Inhibition of Flavobacterium POP preincubated for 5 mins followed by Z-Gly-Pro-pNA substrate measured after 30 mins
T1 sequence (A6H249 whole entry): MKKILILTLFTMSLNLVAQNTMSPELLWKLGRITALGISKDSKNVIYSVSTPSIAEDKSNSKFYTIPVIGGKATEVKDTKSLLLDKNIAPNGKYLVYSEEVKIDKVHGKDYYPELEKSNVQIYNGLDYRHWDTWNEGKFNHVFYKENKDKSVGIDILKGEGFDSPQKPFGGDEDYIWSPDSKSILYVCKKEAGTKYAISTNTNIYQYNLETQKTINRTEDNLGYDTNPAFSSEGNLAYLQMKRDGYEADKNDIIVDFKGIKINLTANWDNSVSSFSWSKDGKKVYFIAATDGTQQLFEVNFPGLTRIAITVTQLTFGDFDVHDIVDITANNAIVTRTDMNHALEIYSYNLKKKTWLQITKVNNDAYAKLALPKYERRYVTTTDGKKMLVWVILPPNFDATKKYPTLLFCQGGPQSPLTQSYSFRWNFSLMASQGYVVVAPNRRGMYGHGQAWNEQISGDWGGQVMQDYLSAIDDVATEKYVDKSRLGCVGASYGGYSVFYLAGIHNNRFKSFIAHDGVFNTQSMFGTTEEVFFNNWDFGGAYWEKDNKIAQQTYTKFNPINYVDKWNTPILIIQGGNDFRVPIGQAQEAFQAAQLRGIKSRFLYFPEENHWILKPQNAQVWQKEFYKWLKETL

Prolyl endopeptidase = target: T2, Prolyl endopeptidase (Homo sapiens, UniProt P48147); test: Inhibition of prolyl oligopeptidase (unknown origin)
T2 sequence (P48147 whole entry): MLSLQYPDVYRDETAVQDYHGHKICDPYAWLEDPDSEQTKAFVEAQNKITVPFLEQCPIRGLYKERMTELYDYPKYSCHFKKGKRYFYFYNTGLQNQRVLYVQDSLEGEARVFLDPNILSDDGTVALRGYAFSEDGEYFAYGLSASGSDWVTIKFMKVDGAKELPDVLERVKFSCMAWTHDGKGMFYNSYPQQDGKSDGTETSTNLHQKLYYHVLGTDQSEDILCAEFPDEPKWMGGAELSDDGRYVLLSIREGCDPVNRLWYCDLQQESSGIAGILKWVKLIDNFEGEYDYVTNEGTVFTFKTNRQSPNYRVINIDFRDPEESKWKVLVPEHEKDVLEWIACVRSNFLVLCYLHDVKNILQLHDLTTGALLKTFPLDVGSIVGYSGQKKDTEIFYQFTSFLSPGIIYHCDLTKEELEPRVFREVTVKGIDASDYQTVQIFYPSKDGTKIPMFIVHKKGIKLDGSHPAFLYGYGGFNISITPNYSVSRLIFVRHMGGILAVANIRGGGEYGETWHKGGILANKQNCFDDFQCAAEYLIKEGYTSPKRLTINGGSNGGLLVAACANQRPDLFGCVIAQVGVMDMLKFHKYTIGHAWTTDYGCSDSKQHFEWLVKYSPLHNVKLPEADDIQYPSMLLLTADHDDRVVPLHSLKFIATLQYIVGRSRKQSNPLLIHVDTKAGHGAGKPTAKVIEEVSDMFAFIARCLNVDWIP

Row | IC50 (HL-60) [nM] | IC50 (MCF7) [nM] | IC50 [1] [nM] | IC50 (Prolyl endopeptidase) [nM] | Compound
1 | 2000 | 26900 | 770 | – | CC(=O)Oc1c(OC(C)=O)c2c3cc(O)c(O)cc3oc2c2oc3cc(O)c(O)cc3c12
2 | 1100 | 35100 | 1200 | – | CC(=O)Oc1c2oc3cc(O)c(O)cc3c2c(OC(C)=O)c2oc3cc(O)c(O)cc3c12 [POLYOZELLIN]
3 | > 20000 | – | – | 950 | CC[C@H](C)[C@H](NC(=O)[C@H](Cc1ccccc1)NC(=O)[C@@H](NC(=O)[C@H](Cc1cnc[nH]1)NC(=O)CNC(=O)CNC(=O)[C@H](Cc1ccccc1)NC(=O)[C@H](CC(C)C)NC(=O)[C@@H]1CC(=O)NCC(=O)N[C@@H](Cc2ccc(O)cc2)C(=O)N2CCC[C@H]2C(=O)N[C@@H](Cc2c[nH]c3ccccc23)C(=O)N[C@@H](Cc2c[nH]c3ccccc23)C(=O)N[C@@H](CC(=O)O)C(=O)N[C@@H](Cc2ccc(O)cc2)C(=O)N[C@@H](CCCNC(=N)N)C(=O)N1)[C@@H](C)O)C(=O)N[C@@H](CO)C(=O)N1CCC[C@H]1C(=O)O (GYPWWDYRDLFGGHTFISP-OH; lactam N-9)

Row | Compound | IC50 (HL-60) [nM] | IC50 (MCF7) [nM] | IC50 [1] [nM] | IC50 (Prolyl endopeptidase) [nM]
4 | CC[C@@]1(O)C(=O)OCc2c1cc1n(c2=O)Cc2cc3ccccc3nc2-1 [CAMPTOTHECIN] | 6.7 | – | – | –
